Measured values: patent publication US5236957A, “N-phenylalkyl substituted α-amino carboxamide derivatives and process for their preparation” (Farmitalia Carlo Erba Srl, priority 1989, dated 1993)
Where two headings read alike, the source gives them in different places.

Experiments:
[1] = tested on: 3-mercaptopropionic acid (MPA) induced tonic convulsions in mice; assay: Antagonism of 3-mercaptopropionic acid (MPA) induced tonic convulsions in mice; type: in vivo; details: Mus musculus, po
Description: (§1) The activity on the CNS of the compounds of the invention was evaluated on the basis of pharmacological methods, such as, for example, the antagonism of convulsions and lethality induced by intravenous injection of bicucculine in mice (Antiepileptic Drug, D. M. Woodbury et al. eds., 2nd edition, Raven Press, New York, 1982), or the antagonism of convulsions induced in mice by subcutaneous injection of 3-mercaptopropionic acid (W. Loscher, Biochem. Pharmacol., 28; 1397-1407, 1979). Accordingly in following Tables 1 and 2, the doses which protect 50% of the mice (i.e. ED50) from lethality and tonic convulsions induced by bicucculine and 3-mercaptopropanoic acid, respectively, are given for a representative group of compounds according to the present invention.
Antagonism of 3-mercaptopropionic acid (MPA) induced
tonic convulsions in mice; drugs were given orally
1 h before MPA (60 mg/kg s.c.)

[2] = tested on: bicucculine-induced lethality in mice; assay: Antagonism of bicucculine-induced lethality in mice; type: in vivo; details: Mus musculus, po; drugs given orally 1 h before bicucculine (0.6 mg/kg, i.v.); protection of 50% of mice from lethality
Description: as §1
Antagonism of bicucculine-induced lethality in mice.
Drugs were given orally 1 h before bicucculine (0.6 mg/kg, i.v.)

MAO type B = biological target: T1, MAO type B (Rattus norvegicus, UniProt P19643); assay: Inhibition of MAO type B, rat liver mitochondria, 2-phenylethylamine as substrate; type: biochemical; details: rat liver mitochondria as source of MAO
T1 construct: using rat liver mitochondria as the source of MAO; from tissue; host or cells: rat liver mitochondria
T1 sequence (P19643 1-520): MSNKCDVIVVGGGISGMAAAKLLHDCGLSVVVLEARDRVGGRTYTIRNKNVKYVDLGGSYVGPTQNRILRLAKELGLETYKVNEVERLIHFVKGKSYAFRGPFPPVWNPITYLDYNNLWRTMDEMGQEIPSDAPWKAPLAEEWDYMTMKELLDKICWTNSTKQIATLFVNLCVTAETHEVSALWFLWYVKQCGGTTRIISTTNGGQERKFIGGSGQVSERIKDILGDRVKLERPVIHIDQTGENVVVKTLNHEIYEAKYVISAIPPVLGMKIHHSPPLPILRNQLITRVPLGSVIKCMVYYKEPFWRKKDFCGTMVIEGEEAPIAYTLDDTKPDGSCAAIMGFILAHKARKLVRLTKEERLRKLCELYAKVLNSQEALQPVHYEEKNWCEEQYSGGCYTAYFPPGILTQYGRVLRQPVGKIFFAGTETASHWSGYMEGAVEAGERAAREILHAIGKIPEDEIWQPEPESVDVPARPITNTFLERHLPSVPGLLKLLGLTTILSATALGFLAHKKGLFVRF

[3] = tested on: serotonin (5-HT) and 5-hydroxy-indole-3-acetic acid (5-HIAA); assay: Levels of 5-HT and 5-HIAA in frontal cortex of mice; type: in vivo; details: 200 mg/kg p.o.
[4] = drugs given orally 1 h before MPA (60 mg/kg s.c.), protection of 50% of mice from tonic convulsions, read-out: ED50

Row | Compound | ED50 [1, 4] [mg/kg] | ED50 [2] [mg/kg] | other results
1 | NC(=O)CNCc1ccc(OCc2cccc(Cl)c2)cc1 [FCE 25989, 2-[4-(3-chlorobenzyloxy)benzyl]aminoacetamide] | 28 | 190 | IC50 (MAO type B): 200 nM; increase of 5-HIAA [3]: 37%; increase of 5-HT [3]: 48%
2 | C[C@@H](NCc1ccc(OCc2cccc(Cl)c2)cc1)C(N)=O [FCE 26312, (R)-2-[4-(3-chlorobenzyloxy)benzyl]aminopropionamide] | 10 | 50 | 
3 | CNC(=O)[C@H](CO)NCc1ccc(OCc2ccccc2)cc1 [FCE 26358, (S)-2-(4-benzyloxybenzyl)amino-3-hydroxy-N-methylpropionamide] | 43 | 16 | 
4 | CNC(=O)[C@H](CO)NCc1ccc(OCc2cccc(Cl)c2)cc1 [FCE 26359, (S)-2-[4-(3-chlorobenzyloxy)benzyl]amino-3-hydroxy-N-methylpropionamide] | 29 |  | 
5 | CNC(=O)[C@H](CO)NCc1ccc(OCc2ccccc2Cl)cc1 [FCE 26502, (S)-2-[4-(2-chlorobenzyloxy)benzyl]amino-3-hydroxy-N-methylpropionamide] | 16 | 27 | 
6 | C[C@H](NCc1ccc(OCc2ccccc2)cc1)C(N)=O [FCE 26550, (S)-2-(4-benzyloxybenzyl)aminopropionamide] | 13 | 15 | 
7 | CNC(=O)[C@H](CO)NCc1ccc(OCc2ccccc2F)cc1 [FCE 26649] |  | 12 | 
8 | CNC(=O)[C@H](CO)NCc1ccc(OCc2cccc(F)c2)cc1 [FCE 26650, (S)-2-[4-(3-fluorobenzyloxy)benzyl]amino-3-hydroxy-N-methylpropionamide] |  | 25 | 
9 | C[C@H](NCc1ccc(OCc2ccccc2Cl)cc1)C(N)=O [FCE 26700, (S)-2-[4-(2-chlorobenzyloxy)benzyl]aminopropionamide] |  | 17 | 
10 | C[C@H](NCc1ccc(Cc2ccccc2)cc1)C(N)=O [FCE 26723, (S)-2-(4-benzylbenzyl)aminopropionamide] |  | 16 | 
11 | C[C@H](NCc1ccc(OCc2cccc(F)c2)cc1)C(N)=O [FCE 26743, (S)-2-[4-(3-fluorobenzyloxy)benzyl]aminopropionamide] |  | 29 | 
12 | C[C@H](NCc1ccc(NCc2ccccc2)cc1)C(N)=O [FCE 26749, (S)-2-(4-benzylaminobenzyl)aminopropionamide] |  | 9 | 
13 | C[C@@H](C(N)=O)N(C)Cc1ccc(Cc2ccccc2)cc1 [FCE 26762, (S)-2-[N-(4-benzylbenzyl)-N-methyl]aminopropionamide] |  | 54 | 
14 | CCCC(CCC)C(=O)O [Valproate, reference compound] |  | 401 | ED50 ([1]; 1 h): 302 mg/kg
